Data from PubChem BioAssay (NCI).
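How tested: cells in 96-well plates exposed to compound for 48 hours at five concentrations. GI50: concentration for 50% inhibition of growth. TGI: concentration producing complete growth inhibition.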

Assays:
Experiment in all cases: inhibition of tumour cell growth, NCI panel, 48 h
[1] = system: 786-0 renal
[2] = system: A498 renal
[3] = system: A549 NSCLC
[4] = system: ACHN renal
[5] = system: BT-549 breast
[6] = system: CAKI-1 renal
[7] = system: CCRF-CEM leukemia
[8] = system: COLO 205 colon
[9] = system: DU-145 prostate
[10] = system: EKVX NSCLC
[11] = system: HCC-2998 colon
[12] = system: HCT-116 colon
[13] = system: HCT-15 colon
[14] = system: HL-60(TB) leukemia
[15] = system: HOP-62 NSCLC
[16] = system: HOP-92 NSCLC
[17] = system: HS 578T breast
[18] = system: HT29 colon
[19] = system: IGROV1 ovarian
[20] = system: K-562 leukemia
[21] = system: KM12 colon
[22] = system: LOX IMVI melanoma
[23] = system: M14 melanoma
[24] = system: MALME-3M melanoma
[25] = system: MCF7 breast
[26] = system: MDA-MB-231 breast
[27] = system: MDA-MB-435
[28] = system: MOLT-4 leukemia
[29] = system: NCI-H226 lung
[30] = system: NCI-H23 lung
[31] = system: NCI-H460 lung
[32] = system: NCI-H522 lung
[33] = system: NCI/ADR-RES ovarian
[34] = system: OVCAR-3 ovarian
[35] = system: OVCAR-4 ovarian
[36] = system: OVCAR-5 ovarian
[37] = system: OVCAR-8 ovarian
[38] = system: PC-3 prostate
[39] = system: RPMI-8226 leukemia
[40] = system: RXF 393 renal
[41] = system: SF-268 CNS
[42] = system: SF-295 CNS
[43] = system: SF-539 CNS
[44] = system: SK-MEL-2 melanoma
[45] = system: SK-MEL-28 melanoma
[46] = system: SK-MEL-5 melanoma
[47] = system: SK-OV-3 ovarian
[48] = system: SN12C renal
[49] = system: SNB-19 CNS
[50] = system: SNB-75 CNS
[51] = system: SR leukemia
[52] = system: SW-620 colon
[53] = system: T-47D breast
[54] = system: TK-10 renal
[55] = system: U251 CNS
[56] = system: UACC-257 melanoma
[57] = system: UACC-62 melanoma
[58] = system: UO-31 renal

CCN(CC)c1ccc(C(=O)c2ccc(N(CC)CC)cc2)cc1
GI50 [1]: 668 nM
TGI [1]: 28.3 µM
GI50 [2]: 335 nM
TGI [2]: 4.14 µM
GI50 [3]: 607 nM
TGI [3]: > 58.1 µM
GI50 [4]: 935 nM
TGI [4]: > 100 µM
GI50 [5]: 629 nM
TGI [5]: 16.5 µM
GI50 [6]: 364 nM
TGI [6]: > 36.7 µM
GI50 [7]: 383 nM
TGI [7]: > 100 µM
GI50 [8]: 515 nM
TGI [8]: 3.44 µM
GI50 [9]: 623 nM
TGI [9]: 7.23 µM
GI50 [10]: 1190 nM
TGI [10]: > 70.3 µM
GI50 [11]: 1260 nM
TGI [11]: 35.4 µM
GI50 [12]: 453 nM
TGI [12]: 13.6 µM
GI50 [13]: 412 nM
TGI [13]: 36.1 µM
GI50 [14]: 407 nM
TGI [14]: 2500 nM
GI50 [15]: 805 nM
TGI [15]: 98.2 µM
GI50 [16]: 776 nM
TGI [16]: 10.9 µM
GI50 [17]: 237 nM
TGI [17]: 1000 nM
GI50 [18]: 359 nM
TGI [18]: 3.78 µM
GI50 [19]: 602 nM
TGI [19]: > 100 µM
GI50 [20]: 150 nM
TGI [20]: 10.2 µM
GI50 [21]: 349 nM
TGI [21]: 8.89 µM
GI50 [22]: 620 nM
TGI [22]: 28.3 µM
GI50 [23]: 614 nM
TGI [23]: > 30.1 µM
GI50 [24]: 334 nM
TGI [24]: 17.4 µM
GI50 [25]: 416 nM
TGI [25]: > 74.4 µM
GI50 [26]: 1230 nM
TGI [26]: 28.2 µM
GI50 [27]: 69.4 nM
TGI [27]: 430 nM
GI50 [28]: 718 nM
TGI [28]: 19.8 µM
GI50 [29]: 2540 nM
TGI [29]: 61.6 µM
GI50 [30]: 740 nM
TGI [30]: > 100 µM
GI50 [31]: 372 nM
TGI [31]: 1990 nM
GI50 [32]: 278 nM
TGI [32]: 1670 nM
GI50 [33]: 355 nM
TGI [33]: 1890 nM
GI50 [34]: 264 nM
TGI [34]: 706 nM
GI50 [35]: 2140 nM
TGI [35]: > 100 µM
GI50 [36]: 4.1 µM
TGI [36]: > 100 µM
GI50 [37]: 720 nM
TGI [37]: > 38.9 µM
GI50 [38]: 452 nM
TGI [38]: > 100 µM
GI50 [39]: 519 nM
TGI [39]: 6.25 µM
GI50 [40]: 444 nM
TGI [40]: 1630 nM
GI50 [41]: 666 nM
TGI [41]: > 35.9 µM
GI50 [42]: 289 nM
TGI [42]: 4.17 µM
GI50 [43]: 436 nM
TGI [43]: 10.5 µM
GI50 [44]: 493 nM
TGI [44]: 14.9 µM
GI50 [45]: 23.1 µM
TGI [45]: > 100 µM
GI50 [46]: 384 nM
TGI [46]: 12.7 µM
GI50 [47]: 676 nM
TGI [47]: 56.8 µM
GI50 [48]: 787 nM
TGI [48]: 35.5 µM
GI50 [49]: 2470 nM
TGI [49]: > 100 µM
GI50 [50]: 458 nM
TGI [50]: > 83.6 µM
GI50 [51]: 127 nM
TGI [51]: > 100 µM
GI50 [52]: 326 nM
TGI [52]: 17 µM
GI50 [53]: 789 nM
TGI [53]: > 100 µM
GI50 [54]: 1330 nM
TGI [54]: 68.9 µM
GI50 [55]: 504 nM
TGI [55]: 23.2 µM
GI50 [56]: 461 nM
TGI [56]: > 59.2 µM
GI50 [57]: 429 nM
TGI [57]: > 100 µM
GI50 [58]: 680 nM
TGI [58]: 64.2 µM
